Measured values reported in article PMC4398458, “Reversible Linkage of Two Distinct Small Molecule Inhibitors of Myc Generates a Dimeric Inhibitor with Improved Potency That Is Active in Myc Over-Expressing Cancer Cell Lines” (PLoS ONE, 2015).

How the values were obtained:
[1] = biological target: T1, Myc:Max interaction (Homo sapiens, UniProt P01106); test: Cell-free Myc:Max ELISA; format: biochemical; settings: average with standard deviation; combinations as equimolar (1:1) titrations, concentration of each monomer; read-out: ELISA (IC50), inhibition of cell-free MYC-MAX heterodimer formation
T1 construct: purchased Origene (Myc); Sino Biologicals (Max)
Experimental: High binding 96-well plates were coated with GST-conjugated full-length Max protein (Sino Biologicals) at 1ng/μL in 100μl of PBS overnight at 4°C. The plate was washed 4x 200 μl/well with PBS and blocked in 200 μl/well of 5% nonfat dry milk in PBS for 2 hours at room temperature. […] Compounds were serially diluted in 100% DMSO and then sequentially diluted […] into the Myc solution before incubation for one hour at room temperature. For internal consistency, final DMSO concentrations were kept at 2%. The blocked plate was washed 4x 200μl/well with Buffer A, before addition of 100 μl of the Myc compound mixture. Plates were incubated for four hours at RT, and washed 4x 200 μl Buffer A/well. Anti-Myc antibody (Cell Signaling) was diluted 1:1000 in 5% nonfat dry milk in Buffer A. 100 μL/well diluted primary antibody was added to each well and incubated for one hour at room temperature. Plates were washed 4x 200 μl/well Buffer A. HRP-conjugated goat anti-rabbit antibody (GE Healthcare) was diluted 1:5000 in 5% nonfat dry milk in Buffer A. 100 μL/well diluted secondary antibody was added to each well and incubated for thirty minutes at room temperature. The plates were washed 4x 200 μL/well Buffer A. 50 μL/well of FEMTO chemiluminescent reagent (Thermo Scientific) was added, and luminescence was immediately read on a Victor X5 plate reader (PerkinElmer) with a 0.1 sec integration time. IC50s were generated through non-linear fitting of data with prism (GraphPad).
We next asked whether the binding of these dimers to Myc could disrupt the interaction with its transcriptional partner Max. We developed an ELISA using purified Myc and Max protein that allowed us to measure effects on Myc:Max binding. The ELISA plate was initially coated with Max protein and the compounds pre-incubated with Myc protein prior to addition to the Max-coated plate. After extensive washing, Myc binding to Max was detected using an anti-Myc antibody. […] We observe similar effects for the dimeric inhibitor E08+N11 (Table 1).

[2] = biological target: T2, His-tagged bHLH-LZ domain of human Myc protein (aa353-439) (Homo sapiens, UniProt P01106); test: Surface Plasmon Resonance binding to immobilized Myc; settings: average KD, equilibrium fit, 25°C; combinations as equimolar titrations; read-out: SPR (Kd), direct MYC binding
T2 construct: human Myc protein (aa353-439, Cayman Chemicals, Ann Arbor, MI); purchased Cayman Chemicals
Experimental: All SPR experiments were performed on a Bio-Rad XPR36 instrument at 25°C. His-tagged bHLH-LZ domain of human Myc protein (aa353-439, Cayman Chemicals, Ann Arbor, MI) was immobilized in running buffer (20 mM Na-phosphate, pH 7.5, 300 mM NaCl, 4 mM KCl,. 05% Tween20) in the absence of DMSO at 25μL/min for 400 seconds on Bio-Rad HTE (Ni-NTA) chips with a resulting RU value of about 4500 after immobilization. Compound binding was analyzed in the same running buffer with a final DMSO concentration of 2%. Compounds were injected at 30μL/min for 180 seconds with a dissociation time of 300 seconds. Injections consisted of 5 concentrations of compounds plus a blank channel for reference that flowed over all immobilized ligands in a matrix format. Regeneration steps were not required due to the rapid dissociation of compounds. Equilibrium fits were performed with the ProteOn software after inter-spot and reference channel subtractions.
We next analyzed whether these dimeric inhibitors could directly bind to Myc. To do this we developed a Surface Plasma Resonance (SPR) assay to compare the binding affinities of the monomers to that of the dimeric inhibitors. We immobilized the bHLHZip domain of Myc to the surface of a Ni-NTA chip via a His-tag and measured binding affinities for the monomers or dimers. […] We observed similar data with the E08+N11 dimer.

[3] = test system: Daudi cells; test: Cell proliferation / viability assay and Bliss synergy analysis; format: cell-based; settings: concentrations up to 30 μM, 3 days
Experimental: K562 (CCL-243), Daudi (CCL-213), Raji (CCL-86) and MV4-11(CCL-9591) cells were purchased directly from American Type Culture Collection (Manassas, VA) and routinely cultured under recommended conditions. Growth and proliferation was determined by use of Cell Titer 96 Aqueous One Solution (Promega, Madison, WI). All cells were plated at 10,000 cells per well in growth media in a clear 96 well plate. After 3 days of compound treatment reagent was added, and absorbance at 490 nm was read after incubation for 4 hours at 37°C. A control plate of compound diluted in media at the same concentrations was treated in a similar way and these values subtracted from the cell plate data to control for any compound interference in the assay. Synergy was determined using the Bliss model of independence.
We screened pairwise combinations of monomers from our libraries in a cell proliferation assay. Increasing concentrations of each compound were dosed in an 8x6 matrix format and their effects on cell proliferation monitored. […] The majority of the combinations were additive in nature, a result consistent with the combination of the two parent ligands C01 and C02 (S1 Fig.). We identified a number of combinations that were synergistic, and representative graphs showing dose dependent inhibition of proliferation with 2 different combinations (E07+N12 and E08+N11) are shown (Fig. 2 A and B). There was no activity of the individual compounds E07, E08, N12, or N11 in the proliferation assay at concentrations up to 30 μM.
Our cell-free experiments had clearly shown that the ability for self-assembly of the dimer was important in driving the improved inhibitory effect versus the Myc protein. To test this in a cellular context we compared the effect on cell viability of the E08+N11 dimer versus its non-dimerizable control combination E08+C11. […] Similar effects on cell viability and Myc protein levels were also observed for the dimer E07+N12 but not its non-dimerizable control E07+C12 (S5 Fig.).

[4] = biological target: T3, Myc:Max heterodimers in complex with E-box DNA (Homo sapiens, UniProt P01106); test: Electrophoretic mobility shift assay (EMSA), Myc:Max heterodimer binding to DNA; format: biochemical; settings: cell-free EMSA, E-box oligonucleotide
T3 construct: c-Myc residues Asn352 to Ala439; 6xHis (N); TEV cleavage site (N); purchased Cayman Chemical (Myc, custom expression); Sino Biologicals (Max) #12885-H20B (Max); host or cells: E. coli BL21StarDE3 (Myc)
Experimental: Human c-Myc (NP_002458.2) containing the bHLH-LZ domain was cloned into a modified pET21a vector and then transformed into the BL21StarDE3 expression system, expressed, and purified at Cayman Chemical. The construct consists of an N-terminal 6xHis tag with a TEV cleavage site, c-Myc residues Asn352 to Ala439, and a GGCD C-terminal extension (molecular weight 12.9 kDa). Compounds were added to 200 ng c-Myc in reaction buffer (100 mM KCL, 1 mM DTT, 1 mM EDTA, 50 mM Tris pH7.4, 5mM MgCl2, 0.002% NP40) and incubated for 60 minutes at room temperature. […] Finally, annealed double-stranded E-box containing DNA oligonucleotide with sequence 5’-[…]-3’ was added to a final concentration of 100 nM for twenty minutes incubation at room temperature. The final concentration of DMSO was kept constant at 2%. The protein-DNA complexes (final volume 10 μl) were resolved on NativePAGE Novex 4–16% Bis-Tris Protein Gels (Life technologies, #BN1002BOX) at 4°C with pre-chilled TBE (89 mM Tris-borate, 1 mM EDTA) at 125V for 90 minutes. SYBR Green EMSA Nucleotide Acid gel stain (Molecular Probes, #E33075) was used to stain dsDNA and DNA-protein complexes. Images were captured with an Alpha Innotech FluorChem Q imager installed with AlphaView software.
The formation of the Myc:Max heterodimer is required for its ability to bind to DNA sequences and trigger transcriptional activation of Myc-dependent genes. […]

[5] = biological target: T4, Max:Max homodimers in complex with E-box DNA (Homo sapiens, UniProt P61244); test: Electrophoretic mobility shift assay (EMSA), Max:Max homodimer binding to DNA; format: biochemical; settings: cell-free EMSA, E-box oligonucleotide
T4 construct: His-tagged and GST-tagged full-length human Max protein; purchased Sino Biologicals #12885-H20B

[6] = biological target: Max (human, UniProt P61244 1-160); test: EMSA; Max:Max homodimer, no Myc; EMSA: 100 mM KCl, 1 mM DTT, 1 mM EDTA, 50 mM Tris pH 7.4, 5 mM MgCl2, 0.002% NP40, 2% DMSO, room temperature; 200 ng Myc, 350 ng Max, 100 nM DNA, 10 ul; gel run in TBE at 4 C; settings: protein: commercial; tags: His and GST; chain copies: 2; label: none (SYBR Green stain); (only one strand given)
Chain of Max (P61244 whole entry): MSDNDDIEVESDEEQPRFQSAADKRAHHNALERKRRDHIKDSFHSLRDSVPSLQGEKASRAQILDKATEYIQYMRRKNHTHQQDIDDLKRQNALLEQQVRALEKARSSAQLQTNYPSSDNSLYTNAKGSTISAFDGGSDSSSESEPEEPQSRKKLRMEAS

T2 sequence (P01106 368-454): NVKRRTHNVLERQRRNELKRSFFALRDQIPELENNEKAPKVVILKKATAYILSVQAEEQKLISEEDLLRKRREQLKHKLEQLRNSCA
T1 sequence (P01106 whole entry): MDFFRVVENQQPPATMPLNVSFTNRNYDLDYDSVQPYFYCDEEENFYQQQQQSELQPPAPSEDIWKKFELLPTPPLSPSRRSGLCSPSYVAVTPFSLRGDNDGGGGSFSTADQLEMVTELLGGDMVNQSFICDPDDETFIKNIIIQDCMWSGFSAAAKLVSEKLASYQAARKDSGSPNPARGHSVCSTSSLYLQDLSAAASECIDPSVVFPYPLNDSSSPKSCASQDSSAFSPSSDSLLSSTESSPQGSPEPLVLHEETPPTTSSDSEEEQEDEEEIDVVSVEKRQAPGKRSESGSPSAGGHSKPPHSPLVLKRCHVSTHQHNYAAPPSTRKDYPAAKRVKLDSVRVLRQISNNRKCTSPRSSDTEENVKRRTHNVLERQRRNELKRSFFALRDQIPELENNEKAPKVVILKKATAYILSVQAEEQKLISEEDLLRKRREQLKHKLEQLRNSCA
T3 sequence (P01106 with tags, fused parts or gaps): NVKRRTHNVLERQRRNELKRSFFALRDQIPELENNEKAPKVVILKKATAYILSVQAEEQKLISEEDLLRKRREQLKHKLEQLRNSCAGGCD

With `CCc1ccc(/C=C2\SC(=O)N(CCNC(=O)[C@@H]3C[C@@H]4C[C@H]3[C@@H](O)[C@H]4O)C2=O)cc1` [N11] the IC50 [1] was > 30 µM, the Kd [2] was > 50 µM and the “activity of the individual compounds in the proliferation assay” value (“activity of the individual compounds” for short) [3] was “no activity”.

In the case of `CCc1ccc(/C=C2\SC(=O)N(CCNC(=O)[C@@H]3C[C@H]4C=C[C@H]3C4)C2=O)cc1` [C11], the IC50 [1] is reported as > 30 µM and the Kd [2] is reported as > 50 µM.

In the case of `NC(=O)c1ccccc1Nc1ccc([N+](=O)[O-])c2nonc12` [C02, 2-((7-Nitrobenzo[c][1,2,5]oxadiazol-4-yl)amino)benzamide, reference compound], the IC50 [1] is reported as > 30 µM.

With `O=C(NCc1ccc(B(O)O)cc1)c1ccccc1Nc1ccc([N+](=O)[O-])c2nonc12` [E08] the IC50 [1] was > 30 µM, the Kd [2] was 47 ± 9 µM and the “activity of the individual compounds” value [3] was “no activity”.

With `O=C(NCc1cccc(B(O)O)c1)c1ccccc1Nc1ccc([N+](=O)[O-])c2nonc12` [E07] the IC50 [1] was 24 ± 7.4 µM, the Kd [2] was 42 ± 10 µM and the “activity of the individual compounds” value [3] was “no activity”. The “effect on Myc:Max complex binding to DNA (gel mobility shift)” value [4] was “Neither of the two monomers, E07 or N12, had any noticeable effect” and the “effect on Max:Max complex binding to DNA (gel mobility shift)” value [5] was “Neither of the two monomers, E07 or N12, had any noticeable effect”.

For `CCc1ccc(/C=C2\SC(=O)N(CC[C@@H]3C[C@H]4C[C@@H]3[C@H](O)[C@@H]4O)C2=O)cc1` [N12], the IC50 [1] was > 30 µM, the Kd [2] was > 50 µM and the “activity of the individual compounds” value [3] was “no activity”. The “effect on Myc:Max complex binding to DNA (gel mobility shift)” value [4] was “Neither of the two monomers, E07 or N12, had any noticeable effect” and the “effect on Max:Max complex binding to DNA (gel mobility shift)” value [5] was “Neither of the two monomers, E07 or N12, had any noticeable effect”.

In the case of `CCc1ccc(/C=C2\SC(=O)N(CC[C@@H]3C[C@@H]4C=C[C@H]3C4)C2=O)cc1` [C12], the IC50 [1] is reported as > 30 µM and the Kd [2] is reported as > 50 µM.

With `CCc1ccc(/C=C2\SC(=O)NC2=O)cc1` [C01, reference compound] the IC50 [1] was > 30 µM.

B1: E-box oligonucleotide (dsDNA)
DNA 1: GATCAGTTGACCACGTGGTCTGGG
DNA 2: CCCAGACCACGTGGTCAACTGATC
B1: binds [6].
